Data on 6 molecules can be found in patent US20250255832A1, “SKIN ADHESIVE PATCH FOR NEGATIVE PRESSURE STIMULATION AND MANUFACTURING METHOD THEREFOR” (Research & Business Foundation Sungkyunkwan University, priority 2022, published 2025).

Entries after “also recorded” stand apart in the source; their conditions may differ. Like-named read-outs stand apart in the source and are kept apart here.

Data set [1] is described as follows: delivery depth by the d-SCC for various drugs with different molecular weights on pig skin. The class given is in vitro ADME. As to conditions: applied in combination with d-SCC. The text has this: FIG. 11 includes: (a) a graph showing the improvement in delivery depth by the d-SCC for various drugs with different molecular weights on pig skin; and (b) images showing the delivered states of the respective drugs under each condition.

The test system of data set [2] is atopic dermatitis-induced mice. As to the kind of experiment: transepidermal water loss in atopic dermatitis-induced mice, drugs combined with d-SCC. As to conditions: applied in combination with the d-SCC patch. The class given is in vivo. An excerpt: FIG. 13 includes: (a) images showing the skin recovery progression in atopic dermatitis-induced mice following the combined application of various drugs and the d-SCC; and (b) a graph illustrating transepidermal water loss over time resulting from the combined application of the respective drugs and the d-SCC.

For data set [3] the following is noted: artificial skin, vs without a patch.

With `Cc1occc(=O)c1O` [Maltol], the “delivery depth of drug applied together with d-SCC” value (from here on “delivery depth … with d-SCC”) in data set [1] is recorded as “greatest delivery depth among the tested conditions; also recorded: excellent delivery depth”. Also, the “transepidermal water loss (TEWL) of the skin” value in data set [2] is recorded as “recovered to a level closest to that of normal (control) skin”.

Consider `CC1=C(/C=C/C(C)=C/C=C/C(C)=C/CO)C(C)(C)CCC1` [Retinol], for which the “delivery depth … with d-SCC” value in data set [1] was “excellent delivery depth”.

For `CCN(CC)c1ccc2c(-c3ccccc3C(=O)O)c3ccc(=[N+](CC)CC)cc-3oc2c1.[Cl-]` [rhodamine B], the “delivery depth improved compared to w/o patch” value in data set [3] (30 minutes after removal of the patch) is on record as “up to 95%”; in data set [3] (after 30 minutes of patch application) it was “up to 138%”.

Take Hyaluronic acid: in data set [1], the “delivery depth … with d-SCC” value is listed as “excellent delivery depth”.

Take Ramoplanin: the “delivery depth … with d-SCC” value in data set [1] is on record as “excellent delivery depth”.

B1: Ovalbumin (protein, UniProt P01012 2-386, looked up)
Ovalbumin: GSIGAASMEFCFDVFKELKVHHANENIFYCPIAIMSALAMVYLGAKDSTRTQINKVVRFDKLPGFGDSIEAQCGTSVNVHSSLRDILNQITKPNDVYSFSLASRLYAEERYPILPEYLQCVKELYRGGLEPINFQTAADQARELINSWVESQTNGIIRNVLQPSSVDSQTAMVLVNAIVFKGLWEKAFKDEDTQAMPFRVTEQESKPVQMMYQIGLFRVASMASEKMKILELPFASGTMSMLVLLPDEVSGLEQLESIINFEKLTEWTSSNVMEERKIKVYLPRMKMEEKYNLTSVLMAMGITDVFSSSANLSGISSAESLKISQAVHAAHAEINEAGREVVGSAEAGVDAASVSEEFRADHPFLFCIKHIATNAVLFFGRCVSP
notes: hydrophilic compound
Turning to B1, in data set [1], the “delivery depth … with d-SCC” value is “excellent delivery depth”.
